Marks after values point to notes of the source that are not given here.
How the values were obtained:
[1] = molecular target: T1, N-terminally GST-tagged mTOR (Homo sapiens, UniProt P42345); experiment: In vitro mTOR binding assay (LanthaScreen TR-FRET); conditions: LanthaScreen kinase binding, Tracer 314; read-out: mTOR IC50 (binding)
T1 construct: truncated version: amino acids 1360-2549; purchased Life Technologies PR8683B

pPKB S473 in A2058 cells = experiment: In-cell Western blot, pPKB S473; assay type: cell-based; conditions: Homo sapiens, A2058, 1 h, 1 hour treatment
[2] = system: pS6 S235/S236 in A2058 cells; experiment: In-cell Western blot, pS6 S235/S236; assay type: cell-based; conditions: Homo sapiens, A2058, 1 h, 1 hour treatment
[3] = system: pig skin (lower epidermis and dermis); experiment: Ex vivo pig skin penetration, first study (80% SBECD formulations); assay type: in vitro ADME
Description: FIG. 3: PK profiles of nine formulations comprising the inventive compounds and control have been assessed. The control formulation Aldara (5% imiquimod) was applied to detect variations in skin permeability (local variability in the same animal and inter-subject variability). The stratum corneum was removed by tape stripping to avoid contamination during the biopsy extraction. […] One biopsy was taken from each control site. Additionally, 5 blank samples were taken.
Ex vivo and in vivo models to assess the penetration of various drug substances including the inventive compounds in the skin of pigs have been established. This model allows to assess the PK profile of several drug candidates including the inventive compounds in one subject, thereby enhancing comparability and avoiding inter-subject variability.
In the first study (FIG. 3, Table 15) the PK profiles of nine test formulations have been assessed using 80% SBECD either at pH3 or pH 7.

excised pig skin = conditions: 1 %

T1 sequence (P42345 1360-2549): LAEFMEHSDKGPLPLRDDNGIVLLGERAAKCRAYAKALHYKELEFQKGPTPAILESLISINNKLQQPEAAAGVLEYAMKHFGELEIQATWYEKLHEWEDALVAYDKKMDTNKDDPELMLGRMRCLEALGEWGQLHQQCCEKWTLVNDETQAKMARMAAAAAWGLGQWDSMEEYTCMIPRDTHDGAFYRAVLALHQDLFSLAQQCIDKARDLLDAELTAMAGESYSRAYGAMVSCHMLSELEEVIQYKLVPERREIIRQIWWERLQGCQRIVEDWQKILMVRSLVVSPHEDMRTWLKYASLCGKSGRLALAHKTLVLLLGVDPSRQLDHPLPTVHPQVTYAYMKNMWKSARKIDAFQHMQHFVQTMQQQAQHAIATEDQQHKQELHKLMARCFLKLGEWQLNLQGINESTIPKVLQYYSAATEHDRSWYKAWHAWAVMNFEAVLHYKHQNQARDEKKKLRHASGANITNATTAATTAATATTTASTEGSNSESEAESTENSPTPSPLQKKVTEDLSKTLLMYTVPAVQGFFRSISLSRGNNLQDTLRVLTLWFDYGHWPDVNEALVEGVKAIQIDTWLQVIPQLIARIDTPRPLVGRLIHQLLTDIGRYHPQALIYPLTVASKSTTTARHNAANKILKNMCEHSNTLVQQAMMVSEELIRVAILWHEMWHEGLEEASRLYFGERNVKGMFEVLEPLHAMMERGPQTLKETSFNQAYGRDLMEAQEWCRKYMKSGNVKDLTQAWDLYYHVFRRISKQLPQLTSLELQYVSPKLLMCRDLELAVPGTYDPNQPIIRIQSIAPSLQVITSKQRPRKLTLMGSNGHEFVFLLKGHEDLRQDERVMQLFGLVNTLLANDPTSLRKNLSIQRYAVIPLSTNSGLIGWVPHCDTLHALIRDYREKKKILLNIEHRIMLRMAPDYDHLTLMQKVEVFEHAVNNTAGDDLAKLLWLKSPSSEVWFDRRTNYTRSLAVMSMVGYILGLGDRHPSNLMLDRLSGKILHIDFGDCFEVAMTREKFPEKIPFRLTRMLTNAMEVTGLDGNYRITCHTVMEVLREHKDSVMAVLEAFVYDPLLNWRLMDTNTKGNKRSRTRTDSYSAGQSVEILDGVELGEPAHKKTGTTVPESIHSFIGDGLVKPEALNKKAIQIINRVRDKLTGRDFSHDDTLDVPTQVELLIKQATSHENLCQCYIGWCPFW

IC50 [1] [nM] | IC50 (pPKB S473 in A2058 cells) [nM] | IC50 [2] [nM] | SMILES | penetration into pig skin ([3]; 1% experimental formulations, 80% SBECD, ex vivo) | intrinsic penetration properties compared with imiquimod (Aldara 5% cream) ([3]; ex vivo pig skin, estimated) | skin concentration / skin PK profile (excised pig skin)
287 | 193 | 617 | C[C@H]1COCCN1c1cc(-c2cnc(N)nc2C(F)(F)F)nc(N2CCOC[C@@H]2C)n1 [reference compound] | – | – | –
376 | 883 | 1100 | C[C@H]1COCCN1c1cc(-c2cnc(N)cc2C(F)(F)F)nc(N2CCOCC2)n1 [reference compound] | – | – | –
1250 | 290 | 1030 | C[C@H]1COCCN1c1cc(-c2cnc(N)nc2C(F)(F)F)nc(N2CCOCC2)n1 [reference compound] | – | – | –
28 | 248 | 228 | C[C@H]1COCCN1c1nc(-c2cnc(N)cc2C(F)(F)F)cc(N2CCOCC2)n1 [reference compound] | – | – | –
186 | 191 | 535 | C[C@H]1COCCN1c1nc(-c2cnc(N)nc2C(F)(F)F)cc(N2CCOCC2)n1 [reference compound] | – | – | –

SMILES | IC50 [1] [nM] | IC50 (pPKB S473 in A2058 cells) [nM] | IC50 [2] [nM] | penetration into pig skin ([3]; 1% experimental formulations, 80% SBECD, ex vivo) | intrinsic penetration properties compared with imiquimod (Aldara 5% cream) ([3]; ex vivo pig skin, estimated) | skin concentration / skin PK profile (excised pig skin)
Nc1cc(C(F)F)c(-c2nc(N3C4CCC3COC4)nc(N3C4CCC3COC4)n2)cn1 [Compound 3, 5-(4-(3-oxa-8-azabicyclo[3.2.1]octan-8-yl)-6-(3-oxa-8-azabicyclo[3.2.1]octan-8-yl)-1,3,5-triazin-2-yl)-4-(difluoromethyl)pyridin-2-amine] | 8 | 231 | 105 | penetrated into pig skin (lower epidermis and dermis) to a significant extent | slightly lower | comparable to Cpd1*
Nc1cc(C(F)(F)F)c(-c2cc(N3CCOCC3)nc(N3C4CCC3COC4)n2)cn1 [reference compound] | 88 | 564 | 562 | – | – | –
Nc1ncc(-c2cc(N3CCOCC3)nc(N3C4CCC3COC4)n2)c(C(F)(F)F)n1 [reference compound] | 121 | 340 | 740 | – | – | –
